Experimental data reported in patent US9708251B2, “Unsaturated fatty alcohol alkoxylates from natural oil metathesis” (Stepan Company, priority 2012, dated 2017).

Key:
[1] = Surfactant phase behavior study (cross-polarized microscopy); assay type: physicochemical; details: room temperature, in deionized water
Procedure, shortened: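 Saturated analogs serve as comparators. Water dilutions of the product, stepped at 2-4% near transitions, equilibrated between slide and cover glass and assigned phase by cross-polarized microscopy texture at 100-400×, 20-22° C. Boundaries lie within ±5% actives; some samples checked by viscosity at 25° C.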

[2] = Emulsion stability testing of nonionic emulsifiers, aromatic solvent series; assay type: physicochemical; parameters: key to 24 h separation, appearance / 1 h separation, appearance / 1 h separation, amount: C = creamy; CO = creamy oil; O = oil; GC = gritty cream; NS = no separation; OC = oily cream; key to Spon. (spontaneity): G = good; F = fair; P = poor
[3] = Performance as a latex paint additive (formulation, KU, rating); details: initial KU of 90; additive 1% active based on latex solids
Experimental: Titanium dioxide slurry (Dupont Ti-Pure® R746) is charged to a container, followed by deionized water and propylene glycol, and the contents are mixed (500 rpm). […] The pH is adjusted to 9.0 using ammonium hydroxide solution. The batch is mixed for 30 min. and then allowed to stand for at least 2 h. […] Viscosity is adjusted to an initial KU of 90 with more thickener.

[4] = Emulsion stability testing of nonionic emulsifiers, Hallcomid solvent series; assay type: physicochemical; parameters: key to 24 h separation, appearance / 1 h separation, appearance / 1 h separation, amount: C = creamy; CO = creamy oil; O = oil; GC = gritty cream; NS = no separation; OC = oily cream; key to Spon. (spontaneity): G = good; F = fair; P = poor
[5] = as above; assay type: physicochemical; parameters: key: C = creamy; CO = creamy oil; O = oil; GC = gritty cream; NS = no separation; OC = oily cream; details: Bifenthrin 240 g/L in Hallcomid M-8-10, 34 ppm water
[6] = 2,4-D ester 480 g/L in Exxsol D-110, 34 ppm water
[7] = 2,4-D ester 480 g/L in Exxsol D-110, 1000 ppm water
[8] = Bifenthrin 240 g/L in Aromatic 100, 34 ppm water
[9] = Bifenthrin 240 g/L in Aromatic 100, 1000 ppm water
[10] = Tebuconazole 360 g/L in N-methyl-2-pyrrolidone, 34 ppm water
[11] = Tebuconazole 360 g/L in N-methyl-2-pyrrolidone, 1000 ppm water
[12] = 2,4-D diester 480 g/L in Hallcomid M-8-10, 34 ppm water
[13] = 2,4-D diester 480 g/L in Hallcomid M-8-10, 1000 ppm water
[14] = Bifenthrin 240 g/L in Hallcomid M-8-10, 34 ppm water
[15] = Bifenthrin 240 g/L in Hallcomid M-8-10, 1000 ppm water
[16] = Tebuconazole 360 g/L in Hallcomid M-8-10, 34 ppm water
[17] = Tebuconazole 360 g/L in Hallcomid M-8-10, 1000 ppm water

SMILES: CCC=CCCCCCCCCOCCOCCOCCOCCOCCOCCOCCOCCOCCOCCOCCOCCOCCOCCOCCO (mixture of isomers) [A12-16]
- Cubic phase region [1]: 30-57 % Actives Level
- Hexagonal phase region [1]: 60-70 % Actives Level
- Paste phase region [1]: 93-100 % Actives Level
- 1 h separation, amount [2, 6]: 3.9 mL
- 1 h separation, appearance [2, 6]: C
- 24 h separation, amount [2, 6]: 5.3 mL
- 24 h separation, appearance [2, 6]: C
- Spon. (spontaneity) [2, 6]: P
- 1 h separation, amount [2, 7]: 2.9 mL
- 1 h separation, appearance [2, 7]: C
- 24 h separation, amount [2, 7]: 4 mL
- 24 h separation, appearance [2, 7]: C
- Spon. (spontaneity) [2, 7]: P
- 1 h separation, amount [2, 8]: 5.9 mL
- 1 h separation, appearance [2, 8]: C
- 24 h separation, amount [2, 8]: 6 mL
- 24 h separation, appearance [2, 8]: C
- Spon. (spontaneity) [2, 8]: F
- 1 h separation, amount [2, 9]: 5.5 mL
- 1 h separation, appearance [2, 9]: C
- 24 h separation, amount [2, 9]: 5 mL
- 24 h separation, appearance [2, 9]: C
- Spon. (spontaneity) [2, 9]: P
- 1 h separation, amount [2, 10]: 1.8 mL
- 1 h separation, appearance [2, 10]: CO
- 24 h separation, amount [2, 10]: 3 mL
- 24 h separation, appearance [2, 10]: GC
- Spon. (spontaneity) [2, 10]: F
- 1 h separation, amount [2, 11]: 1.9 mL
- 1 h separation, appearance [2, 11]: CO
- 24 h separation, amount [2, 11]: 3 mL
- 24 h separation, appearance [2, 11]: GC
- Spon. (spontaneity) [2, 11]: F
- final KU of paint after 24 h [3]: 93-100 KU
- 1 h separation, amount [4, 12]: 4.5 mL
- 1 h separation, appearance [4, 12]: C
- 24 h separation, amount [4, 12]: 8.5 mL
- 24 h separation, appearance [4, 12]: C
- Spon. (spontaneity) [4, 12]: P
- 1 h separation, amount [4, 13]: 4 mL
- 1 h separation, appearance [4, 13]: C
- 24 h separation, amount [4, 13]: 7 mL
- 24 h separation, appearance [4, 13]: C
- Spon. (spontaneity) [4, 13]: P
- 1 h separation, amount [4, 14]: NS
- Spon. (spontaneity) [4, 14]: G
- 1 h separation, amount [4, 15]: 6.2 mL
- 1 h separation, appearance [4, 15]: CO
- 24 h separation, amount [4, 15]: 2 O, 3.6 CO
- Spon. (spontaneity) [4, 15]: F
- 1 h separation, amount [4, 16]: 1.5 mL
- 1 h separation, appearance [4, 16]: C
- 24 h separation, amount [4, 16]: 3 mL
- 24 h separation, appearance [4, 16]: C
- Spon. (spontaneity) [4, 16]: F
- 1 h separation, amount [4, 17]: 1.5 mL
- 1 h separation, appearance [4, 17]: C
- 24 h separation, amount [4, 17]: 3 mL
- 24 h separation, appearance [4, 17]: C
- Spon. (spontaneity) [4, 17]: F
- 24 h separation, amount [5]: NS
